The values that follow come from ChEMBL document CHEMBL6134780, “Halogenated retinoid derivatives as dual RARα and RXRα modulators for treating acute promyelocytic leukemia cells” (Eur J Med Chem, 2024).

Active and inactive are the calls of the source. The rule behind the calls is not given here.

One experiment concerns Jurkat. In words: Induction of cell differentiation in human Jurkat cells at 0.5 uM incubated for 6 days by CD11b staining based flow cytometric analysis. The experiment is classed as functional. Particulars: time 6.0 day. (Flow cytometry measures light scatter and fluorescence of single cells or particles in a stream.)
The subject of experiment [1] is NB-4. In words: Cell cycle arrest in human NB4 cells assessed as accumulation of cells at S phase at 0.5 uM incubated for 6 days for DAPI staining based flow cytometric analysis (reference value: 27 %). In kind it is functional. Particulars: time 6 day.
Experiment [2] deals with NB-4. In words: Induction of apoptosis in human NB4 cells assessed as early apoptotic cells at 1 uM incubated for 24 hrs by Annexin V-FITC/PI staining based flow cytometric analysis (reference value: 4.37 %). The experiment is classed as functional.
Experiment [3] relates to NB-4. In words: Induction of apoptosis in human NB4 cells assessed as necrotic cells at 1 uM incubated for 24 hrs by Annexin V-FITC/PI staining based flow cytometric analysis (reference value: 0.07 %). The experiment is classed as functional.
The nature of experiment [4]: Induction of apoptosis in human ATRA-resistant NB4-LR2 cells assessed as early apoptotic cells at 1 uM incubated for 24 hrs by Annexin V-FITC/PI staining based flow cytometric analysis (reference value: 5.38 %). The experiment is classed as functional.
A short description of experiment [5]: Induction of apoptosis in human ATRA-resistant NB4-LR2 cells assessed as late apoptotic cells at 1 uM incubated for 24 hrs by Annexin V-FITC/PI staining based flow cytometric analysis (reference value: 7.23 %). In kind it is functional.
Experiment [6] concerns NB-4. The experiment can be described thus: Cell cycle arrest in human NB4 cells assessed as accumulation of cells at G2/M phase at 0.5 uM incubated for 24 hrs by DAPI staining based flow cytometric analysis (reference value: 23 %). In kind it is functional.
For experiment [7], the system named is NB-4. The experiment can be described thus: Cell cycle arrest in human NB4 cells assessed as accumulation of cells at G0/G1 phase at 2 uM incubated for 24 hrs by DAPI staining based flow cytometric analysis (reference value: 48 %). The experiment is classed as functional.
In experiment [8] the test system is NB-4. In words: Cell cycle arrest in human NB4 cells assessed as accumulation of cells at S phase at 2 uM incubated for 24 hrs by DAPI staining based flow cytometric analysis (reference value: 26 %). In kind it is functional.
In experiment [9] the test system is NB-4. In words: Cell cycle arrest in human NB4 cells assessed as accumulation of cells at G2/M phase at 2 uM incubated for 24 hrs by DAPI staining based flow cytometric analysis (reference value: 23 %). The experiment is classed as functional.
A short description of experiment [10]: Cell cycle arrest in human ATRA-resistant NB4-LR2 cells assessed as accumulation of cells at G0/G1 phase at 0.5 uM incubated for 24 hrs by DAPI staining based flow cytometric analysis (reference value: 42 %). In kind it is functional.
Experiment [11] in a line: Cell cycle arrest in human ATRA-resistant NB4-LR2 cells assessed as accumulation of cells at G0/G1 phase at 1 uM incubated for 24 hrs by DAPI staining based flow cytometric analysis (reference value: 42 %). The experiment is classed as functional.
A short description of experiment [12]: Cell cycle arrest in human ATRA-resistant NB4-LR2 cells assessed as accumulation of cells at G2/M phase at 1 uM incubated for 24 hrs by DAPI staining based flow cytometric analysis (reference value: 25 %). The experiment is classed as functional.
The subject of experiment [13] is NB-4. The experiment can be described thus: Cell cycle arrest in human NB4 cells assessed as accumulation of cells at G0/G1 phase at 2 uM incubated for 3 hrs by DAPI staining based flow cytometric analysis (reference value: 56 %). In kind it is functional.
For experiment [14], the system named is NB-4. The experiment can be described thus: Cell cycle arrest in human NB4 cells assessed as accumulation of cells at S phase at 2 uM incubated for 3 hrs by DAPI staining based flow cytometric analysis (reference value: 20 %). The experiment is classed as functional.
The subject of experiment [15] is NB-4. The experiment can be described thus: Cell cycle arrest in human NB4 cells assessed as accumulation of cells at G2/M phase at 2 uM incubated for 6 hrs by DAPI staining based flow cytometric analysis (reference value: 21 %). In kind it is functional.
The target of experiment [16] is T1, Retinoic acid receptor gamma (Homo sapiens) (UniProt P13631).
T1 sequence (whole entry): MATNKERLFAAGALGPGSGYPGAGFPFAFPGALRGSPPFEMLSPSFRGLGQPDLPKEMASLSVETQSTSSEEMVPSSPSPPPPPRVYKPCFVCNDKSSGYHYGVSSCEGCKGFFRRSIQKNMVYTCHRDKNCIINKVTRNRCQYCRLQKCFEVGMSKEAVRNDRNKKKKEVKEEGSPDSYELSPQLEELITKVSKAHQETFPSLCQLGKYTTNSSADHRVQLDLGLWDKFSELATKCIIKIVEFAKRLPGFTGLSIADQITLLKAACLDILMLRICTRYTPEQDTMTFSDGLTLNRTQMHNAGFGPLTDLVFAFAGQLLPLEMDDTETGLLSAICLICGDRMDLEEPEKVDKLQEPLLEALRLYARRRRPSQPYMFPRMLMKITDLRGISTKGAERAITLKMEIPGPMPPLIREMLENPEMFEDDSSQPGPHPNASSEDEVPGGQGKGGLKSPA
The experiment can be described thus: Agonist activity at Gal4-fused full length RARgamma LBD (unknown origin) transfected in HEK293T cells co-transfected with pG5luc reporter and Renilla-luc assessed as transactivation at 0.1 to 1 uM incubated for 12 hrs by luciferase reporter gene assay. Particulars: dose 0.1-1 µM. The experiment is classed as cell-based.

Another experiment deals with NB4. The experiment can be described thus: Induction of PML-RARalpha degradation in human NB4 cells at 0.5 uM incubated for 6 days by Western blot analysis. The experiment is classed as cell-based. The settings on record: time 6.0 day. (In general: Immunoblotting shows a protein as a band on a membrane.)
Experiment [17] can be described thus: Cell cycle arrest in human ATRA-resistant NB4-LR2 cells assessed as accumulation of cells at G0/G1 phase at 2 uM incubated for 12 hrs by DAPI staining based flow cytometric analysis (reference value: 57 %). The experiment is classed as functional.
The test system of experiment [18] is NB-4. The experiment can be described thus: Cell cycle arrest in human NB4 cells transfected with pLVX-shRNA2-negative control assessed as accumulation of cells at G2/M phase at 2 uM incubated for 12 hrs by DAPI staining based flow cytometric analysis (reference value: 24 %). In kind it is functional.
The subject of experiment [19] is NB-4. In words: Cell cycle arrest in human NB4 cells transfected with pLVX-shRNA2-negative control assessed as accumulation of cells at sub-G1 phase at 2 uM incubated for 12 hrs by DAPI staining based flow cytometric analysis (reference value: 4 %). The experiment is classed as functional.
Experiment [20] relates to NB-4. In words: Induction of mitosis in human NB4 cells assessed as upregulation of pT210-PLK1 expression at 2 uM measured after 3 hrs by Western blot analysis. In kind it is functional, cell-based.
For experiment [21], the system named is ATRA-resistant NB4-LR2. In words: Cell cycle arrest in human ATRA-resistant NB4-LR2 cells transfected with pLVX-shRXRalpha assessed as increase in cyclin B1 expression at 1 uM incubated for 12 hrs by Western blot analysis. The experiment is classed as functional, cell-based.
The subject of experiment [22] is ATRA-resistant NB4-LR2. In words: Induction of apoptosis in human ATRA-resistant NB4-LR2 cells transfected with pLVX-shRXRalpha assessed as increase in cleaved PARP expression at 1 uM incubated for 12 hrs by Western blot analysis. The experiment is classed as functional, cell-based.
Experiment [23] is described as follows: Cell cycle arrest in human ATRA-resistant NB4-LR2 cells assessed as accumulation of cells at S phase at 1 uM incubated for 12 hrs by DAPI staining based flow cytometric analysis (reference value: 12 %). The experiment is classed as functional.
A short description of experiment [24]: Cell cycle arrest in human ATRA-resistant NB4-LR2 cells assessed as accumulation of cells at G2/M phase at 1 uM incubated for 12 hrs by DAPI staining based flow cytometric analysis (reference value: 28 %). The experiment is classed as functional.
In experiment [25] the test system is ATRA-resistant NB4-LR2. The experiment can be described thus: Cell cycle arrest in human ATRA-resistant NB4-LR2 cells assessed as accumulation of cells at G2/M phase at higher concentration by DAPI staining based flow cytometric analysis. In kind it is functional.

Regarding `Cc1cc2c(cc1C(=O)/C(Br)=C/c1ccc(C(=O)O)cc1)C(C)(C)CCC2(C)C`, the outcome in the experiment with Jurkat, in the experiment with ATRA-resistant NB4-LR2 [21] and in the experiment with ATRA-resistant NB4-LR2 [22] was inactive. Moreover, the Activity in the experiment on NB-4 [1] is given as 7%; with NB-4 [2], 23.14%; in the experiment with NB-4 [3] it was 1.3%; in experiment [4], 29.03%; in [5], 13.3%; in the experiment with NB-4 [6], 26%. Further, the Activity in the experiment on NB-4 [7] is 35%; in the experiment with NB-4 [8], 19%; in the experiment with NB-4 [9], 37%; in experiment [10] it was 37%; in [11], 32%; in experiment [12], 30%. Besides, the Activity was 48% in the experiment on NB-4 [13]; 21% in the experiment on NB-4 [14]; 40% in the experiment with NB-4 [15]; “Weak_effect” in [16]; 36% in experiment [17]; 44% in the experiment on NB-4 [18]. Also, the Activity amounted to 7% in the experiment on NB-4 [19], 16% in experiment [23] and 52% in experiment [24]. Moreover, the outcome with NB4 and in the experiment with NB-4 [20] was Active.
Take `Cc1cc2c(cc1C(=O)/C(Br)=C\c1ccc(C(=O)O)cc1)C(C)(C)CCC2(C)C`: the result in the experiment on Jurkat was inactive. In addition, the Activity in the experiment on NB-4 [1] was 8%; in the experiment with NB-4 [2], 12.39%; in the experiment on NB-4 [3] it was 0.52%; in experiment [4], 20.24%; in [5], 11.42%; in experiment [16], “Weak_effect”. Also, the result in the experiment with NB4, in the experiment with ATRA-resistant NB4-LR2 [25] and with NB-4 [20] was Active.
